Literature values as cited in patent US9399681B2, “Amatoxin-conjugates with improved linkers” (Heldelberg Pharma GmbH, priority 2010, dated 2016).

Target: DNA-dependent RNA polymerase II of mammalian cells (Homo sapiens, UniProt P24928)
Conditions: background statement, non-covalent complex; read-out: KD of the complex between amanitin and RNA-polymerase II

## amanitin
  Kd: 3 nM
